Measured values taken from PMC6680510, “Benzotriazine Di-Oxide Prodrugs for Exploiting Hypoxia and Low Extracellular pH in Tumors” (Molecules, 2019).
Where “and” joins values, the source holds several entries; their conditions need not be identical. Equal entries are not always repeated. Where two headings read alike, the source gives them in different places.

How the values were obtained:
[1] = One-electron reduction potentials by pulse radiolysis; type: physicochemical; details: pH 7.0, equilibrium with redox indicator shown in square brackets
Description: One-electron reduction potentials (E^0′) were determined from the redox equilibria with methylviologen, MV^2+, (E^0′ = […], [34]), dimethyldiquat, V21^2+, (E^0′ = […], [35]), or triquat, TQ^2+, (E^0′ = −548 ± 7 mV [34]). […] Substituting the 3-alkanoic sidechain with the 3-aminoalkanoic sidechain on the BTO 1,4-dioxide lowers the E^0′, as does the addition of the cyclopentane ring. The combined effect is seen for 10a, where the E^0′ value is −565 mV, which is expected to be too low for significant bioreduction under hypoxia.
(§1) Time-resolved optical absorption and kinetic studies were carried out using the University of Auckland’s 4 MeV linear accelerator, which has been previously described. The one-electron reduction potentials of the compounds (A) and couple E^0′(A/A^−), versus normal hydrogen electrode, were determined at pH 7.0 (2.5 mM phosphate) by establishing redox equilibria within 50 μs between three mixtures of one-electron reduced A and the viologen reference compounds, MV^2+, TQ^2+ and V21^2+. The determined equilibrium constants were used to calculate the ΔE values using the Nernst equation, correcting for ionic strength effects, as described in the literature.

[2] = Pulse radiolysis of the radical anion (pKa, decay and oxidation kinetics); type: physicochemical
Text: The free radical chemistry of 7a was investigated by pulse radiolysis and electron paramagnetic resonance (EPR). […] The radical anion decayed slowly under anoxia at pH 7 with mixed kinetics (first-order rate constant of 78 ± 4 s^−1, second-order rate constant of 3.8 ± 0.7 × 10^7 M^−1 s^−1, Figure S3), broadly similar to SN30000 [24]. The second-order rate constant for oxidation of the radical anion of 7a by O2, 5.39 ± 0.40 × 10^6 M^−1 s^−1 (Figure S4), is consistent with the known dependence on E^0′ for BTOs.
as §1
Molecules 2019, 24, x FOR PEER REVIEW 3 of 8
Figure S2. Effect of pH on the change in radical absorption at 490 nm upon one-electron reduction of 7a ([…]) by the CO2.- radical anion following pulse radiolysis (3 Gy in 200 ns) of N2O-saturated solutions containing sodium formate (0.1 M) and buffers (10 mM). Data points, obtained ca. 20 ms […]
Figure S3. […]
dependence on increasing radiation dose (radical concentration) of the reciprocal of the first half-life of decay of the radical anion of 7a measured at 490 nm. […]
Figure S4. Dependence of the first-order rate constant measured at 490 nm for the decay of the radical anion of 7a at pH 7.0, k, on the concentration of O2 in solution following pulse radiolysis (10 Gy in 200 ns). […] The second order rate constant, kO2, calculated from the gradient

SiHa cells [3] = experiment: IC50 assay (inhibition of proliferation, 4 h exposure, SRB); details: SiHa; for IC50: Homo sapiens, 4 h
Summary of the method: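 Cells exposed to compound for 4 h in titrated medium, then washed and regrown 5 days under standard conditions (oxia, pHe 7.4). Growth read by sulforhodamine B staining; IC50 from 4-parameter logistic regression of duplicate cultures.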

FaDu cells = experiment: as above; type: cell-based; details: for IC50: Homo sapiens, 4 h
[4] = Protein binding by equilibrium dialysis (FBS, culture medium); type: in vitro ADME
Description: Protein binding of 7a in plasma from NIHIII mice and fetal bovine serum (FBS) assessed
by equilibrium dialysis using a 12-14KDa cut-off dialysis membrane (HTDialysis, Gales Ferry, CT) as
Briefly, 100 µL samples of undiluted plasma,
plasma diluted in PBS, and αMEM with or without FBS containing 7a at 100 μM were dialysed against
100 µL PBS or αMEM (pH 7.4) in an incubator (Innova-42, New Brunswick Scientific, US ) at 37°C
with shaking at 80 rpm for 6 h. Proteins were precipitated with 3 vol of ice-cold MeCN, the

SiHa and SiHa/POR cells = experiment: IC50 in SiHa versus SiHa/POR cultures under anoxia; type: cell-based; details: 4 h under anoxia, pHe 7.4
Description: The lack of effect of POR over-expression on the reductive metabolism of the BTO acids in intact cells led us to compare the cytotoxicities of SN30000 (2), 4a, and 7a in SiHa/POR, and the parental line, under anoxia (Figure 6).
Drug exposure was for 4 h under anoxia, at pHe 7.4, with regrowth under aerobic conditions for 5 days before staining with SRB. Values are means and SEM for the two experiments, each with triplicate cultures at each drug concentration. TEXT PRINTED IN THE PICTURE: Cmpd 2: Ratio 6.75 ± 0.20 | Cmpd 4a: Ratio 3.40 ± 0.22 | Cmpd 7a: Ratio 2.67 ± 0.46

[5] = Solubility in AlphaMEM + 5% FBS, pH 7.4; details: culture medium (AlphaMEM + 5% FBS), pH 7.4, plasma or biological fluid, thermodynamic from solid
[6] = Measured pKa (potentiometric titration)
[7] = test system: MDCK-II cells with forced expression of BCRP or Pgp; experiment: IC50 under anoxia in cells with forced expression of efflux transporters; details: MDCK-II cell lines under anoxia, preliminary experiments
Description: expression of BCRP or Pgp.
Cells were seeded at 300 cells/well in DMEM with 10% FBS in 96 well plates in an
anaerobic chamber, allowed to attach for 2 h then exposed to drugs for 4 h under anoxia. Cells were
then washed with fresh medium and grown for 5 days under aerobic conditions before staining with
SRB. Values are mean ± SEM from 2 separate experiments.

SiHa cells [8] = experiment: Cellular uptake in stirred aerobic single cell suspensions (HPLC, 3H-mannitol correction); details: for Observed Ci/Ce ratio: SiHa
Description: In these experiments, cell pellets were collected by centrifugation and ^3H-mannitol was used as a cell-excluded marker to enable correction for the entrapped extracellular medium.
Log-phase cultures were dissociated with trypsin/EDTA, followed by the addition of the medium with DNAase I (Sigma DN-25) at 100 μg/mL for 5 min at 37 °C to minimize clumping. The cell pellets were collected by centrifugation and resuspended in αMEM with 5% FBS at pH 7.4 or 6.5 to 2 × 10^6 cells/mL. Samples (12 mL) were equilibrated with magnetic stirring at 37 °C under flowing humidified 5% CO2/air or N2 (50–100 mL/min), as previously described [86]. After equilibration for 60 min, the compounds were added in 50 μL of DMSO. The samples (5 mL) were withdrawn 5 and 60 min later, where the cell pellets were then collected by centrifugation and 4 mL of the supernatant was discarded. The pellets were resuspended in the remaining 1 mL, transferred to microcentrifuge tubes containing 7 μL ^3H-mannitol (740 GBq/mmol, American Radiolabeled Chemicals Inc., St. Louis, MO) as an extracellular marker, and then centrifuged (11,000g × 30s). The supernatant was removed and frozen at −80 °C (extracellular samples) and the tubes were centrifuged again, and any remaining medium was carefully removed. Ice-cold MeOH (80 μL) was added to the pellets which were disrupted by pipetting and stored at −80 °C (intracellular samples). When these were thawed for HPLC analysis (Section 4.12), the volume of extracellular water trapped in the pellets was determined by the scintillation counting (PerkinElmer Tri-Carb B2910TR Liquid Scintillation) of 25 μL of each extracellular and intracellular sample in 3 mL of Emulsifier-Safe™ scintillation cocktail (PerkinElmer). The extracellular volume in each intracellular sample was used to correct the intracellular drug concentration as previously described [87].
The samples were analyzed using an Agilent 1200 HPLC with a diode array absorbance detector and autosampler maintained at 4 °C (Agilent Technologies). The frozen samples were thawed, then centrifuged (11,000g × 5 min), and then extracellular samples were injected directly (typically 20 μL), while for the intracellular samples 30 μL was mixed 1:1 with αMEM and 50 μL was injected. […] All calibration curves were linear (R^2 > 0.999). The column was an Agilent ZORBAX Eclipse (XDB-C18, 5u, 2.1 × 150 mm, Agilent Technologies) with a flow rate of 0.4 mL/min. For SN30000 (2), the mobile phase was a mixture of 80% MeCN/water v/v (A), and a 45 mM formate buffer at a pH 4.5, eluting with a linear gradient of 5–100% A over 18 min. The same method was used for the BTO acids, except for 4a, where the aqueous mobile phase pH was reduced to 3.5.
Values are mean and SEM for 3 replicates. ND: Not detected.

What does the source list for `O=C(O)CCc1n[n+]([O-])c2cc3c(cc2[n+]1[O-])CCC3` [Compound 7a, 3-(2-Carboxyethyl)-7,8-dihydro-6H-indeno[5,6-e][1,2,4]triazine 1,4-Dioxide]?
E^0′ one-electron reduction potential [1]: −463 mV and −463 ± 8 [MV^2+, V21^2+] mV; First-order rate constant of radical anion decay ([2]; anoxia, pH 7): 78 ± 4 s⁻¹; Second-order rate constant of radical anion decay ([2]; anoxia, pH 7): 3.8 ± 0.7 × 10^7 M^−1 s^−1; Second-order rate constant for oxidation of the radical anion by O2 ([2]; pH 7.0): 5.39 ± 0.40 × 10^6 M^−1 s^−1; IC50 (SiHa cells [3]; read-out: Anoxic IC50, SiHa, pHe 6.5, 4 h, anoxic): 0.428 ± 0.152 mM; IC50 (SiHa cells [3]; read-out: Anoxic IC50, SiHa, pHe 7.4, 4 h, anoxic): 0.864 ± 0.277 mM; IC50 (SiHa cells [3]; read-out: Oxic IC50, SiHa, pHe 6.5, 4 h, oxic): 1.89 ± 0.308 mM; IC50 (SiHa cells [3]; read-out: Oxic IC50, SiHa, pHe 7.4, 4 h, oxic): 3.72 ± 0.83 mM; TMR (overall TME ratio = oxic IC50 pHe 7.4/anoxic IC50 pHe 6.5) (SiHa cells [3]): 8.7 ± 3.6; PCR Anoxic (IC50 at pHe 7.4/IC50 at pHe 6.5) (SiHa cells [3]; anoxic): 2.02 ± 0.97; PCR oxic (IC50 at pHe 7.4/IC50 at pHe 6.5) (SiHa cells [3]; oxic): 1.97 ± 0.55; ACR (anoxic cytotoxicity ratio = oxic IC50/anoxic IC50) (SiHa cells [3]; pHe 6.5): 4.41 ± 1.73; ACR (anoxic cytotoxicity ratio = oxic IC50/anoxic IC50) (SiHa cells [3]; pHe 7.4): 4.31 ± 1.58; TMR (oxic IC50 pHe 7.4/anoxic IC50 pHe 6.5) (FaDu cells): >7.9; IC50 (FaDu cells; pHe 6.5, 4 h, anoxic, read-out: Anoxic IC50): 0.885 ± 0.515 mM; IC50 (FaDu cells; pHe 6.5, 4 h, oxic, read-out: Oxic IC50): 4.91 ± 1.6 mM; IC50 (FaDu cells; pHe 7.4, 4 h, anoxic, read-out: Anoxic IC50): 3.26 ± 1.07 mM; IC50 (FaDu cells; pHe 7.4, 4 h, oxic, read-out: Oxic IC50): > 7 mM; PCR oxic (IC50 at pHe 7.4/IC50 at pHe 6.5) (FaDu cells; oxic): >1.4; ACR (oxic IC50/anoxic IC50) (FaDu cells; pHe 6.5): 5.55 ± 3.70; ACR (oxic IC50/anoxic IC50) (FaDu cells; pHe 7.4): > 2; Protein binding in culture medium with 5 or 10% FBS ([4]; 100 μM): not detectable; fraction unbound at 6 h, 100 µM ([4]; bovine, fetal bovine serum (FBS), pH 7.4, FBS, read-out: Protein binding (bound) in FBS (converted)): 0.38; IC50 ratio SiHa / SiHa/POR (fold lower IC50 in POR cell line) (SiHa and SiHa/POR cells): 2.67 ± 0.46 and 2.7; solubility [5]: 24.8 mM; pKa [6]: 4.16; Effect of overexpression of BCRP or Pgp efflux transporters on sensitivity [7]: no effect; Observed Ci/Ce ratio (SiHa cells [8]; pHe 6.5, approximate value quoted in text): ~ 0.7; Observed Ci/Ce ratio (SiHa cells [8]; pHe 7.4, approximate value quoted in text): ~ 0.1; Ci ratio (Ci at pHe 6.5/Ci at pHe 7.4) (SiHa cells [8]; aerobic SiHa suspensions, 5 min): 3.9 ± 1.3 fold; Ci/Ce, pHe 6.5 Obs 5 min (SiHa cells [8]; aerobic SiHa suspensions, pHe 6.5, 5 min): 0.70 ± 0.03; Ci/Ce, pHe 6.5 Obs 60 min (SiHa cells [8]; aerobic SiHa suspensions, pHe 6.5, 60 min): 0.75 ± 0.03; Ci/Ce, pHe 7.4 Obs 5 min (SiHa cells [8]; aerobic SiHa suspensions, pHe 7.4, 5 min): 0.21 ± 0.08; Ci/Ce, pHe 7.4 Obs 60 min (SiHa cells [8]; aerobic SiHa suspensions, pHe 7.4, 60 min): <0.1
